Assay results reported in PMC12592173, “Targeted degradation of EGFR 19Del by PROTACs suppresses tumor growth in non-small-cell lung cancer” (Frontiers in Pharmacology, 2025).
“And” between values parts separate entries of the source, which are not always exact repeats. Equal entries are not always repeated. “Also recorded” adds a separate entry of the source. Where two headings read alike, the source gives them in different places.

Legend:
[1] = system: H1975 cells; experiment: Cell viability (CCK-8) in H1975 cells; assay type: cell-based; details: up to 1 μM, 96 h
Protocol: (§1) Cells (5 × 10^3 for 48 h or 1 × 10^3 for 96 h) were seeded in 96-well plates, allowed to attach overnight, and then incubated with various concentrations of compounds for 48 h or 96 h. The viability of cells was determined using Cell Counting Kit-8 (CCK-8; Dojindo), and IC50 was calculated using GraphPad Prism (version 6.0). For colony formation assays, cells (1 × 10^3 cells/well) seeded in 24-well plates were treated with different concentrations of compounds and replaced with fresh media with compounds every 4 days. After 7 days, the cells were washed with PBS, fixed with methanol, and stained with 0.1% crystal violet solution.

[2] = system: HeLa cells; experiment: Cell viability (CCK-8) in HeLa cells; assay type: cell-based; details: up to 1 μM, 96 h
Protocol: as §1

[3] = target: T1, EGFR^L858R (Homo sapiens, UniProt P00533, L858R); experiment: Western blot of EGFR degradation in Ba/F3 cells stably expressing EGFR^L858R; assay type: cell-based; details: 24 h
T1 construct: expressed in transfected cells; host or cells: Ba/F3 (lentiviral pLVX-EGFR^L858R, puromycin selected)
Protocol: HCC827 and H1975 cell lines were purchased from ATCC (United States) and cultured according to the manuals. Cells were grown in monolayers in appropriate media supplemented with 10% fetal bovine serum and 1% antibiotic/antimycotic solution. Ba/F3 cells stably expressing EGFR^L858R were obtained by infection with lentivirus produced by co-transfection of pLVX-EGFR^L858R, psPAX2, and pMD2.G into 293T cells, followed by selection with puromycin.
(§2) Cells at 70%–90% confluence were lysed in RIPA buffer with complete protease inhibitor cocktail (Roche Applied Science, Penzberg, Germany). Lysates were quantified, separated on SDS-PAGE gels, and transferred onto PVDF membranes, followed by the blockade with 5% milk in TBS+ 0.1% Tween-20 buffer for 1 h at room temperature. The following primary antibodies were used: anti-EGFR (1:50000, ABclonal Technology, Wuhan, China), anti-pEGFR (Tyr1068, […], Cell Signaling Technology, MA, United States), anti-AKT (1:10000, ABclonal Technology, Wuhan, China), anti-pAKT (1:10000, ABclonal Technology, Wuhan, China), and anti-β-actin (1:10000, ABclonal Technology, Wuhan, China). Protein bands were detected using Tanon High-signal ECL Western Blotting Substrate (Tanon Science and Technology Co., Ltd., Shanghai, China). The band density of the protein of interest was quantified using ImageJ.

[4] = system: HCC827 cells; experiment: Cell viability (CCK-8) in HCC827 cells; assay type: cell-based, human; details: for IC50: Homo sapiens, CCK-8
Protocol: as §1, with “The” for “Cells (5 × 10^3 for 48 h or 1 × 10^3 for 96 h) were seeded in 96-well plates, allowed to attach overnight, and then incubated with various concentrations of compounds for 48 h or 96 h. The”

[5] = system: pEGFR and pAKT; experiment: Western blot of downstream signaling in HCC827 cells; assay type: cell-based, human
Protocol: as §2

[6] = Mouse weights in HCC827 xenograft study; assay type: in vivo; details: 30 mg/kg intraperitoneal, repeated and one-time dosing
Protocol: (§3) Female BALB/c nude mice (5–6 weeks old) were purchased from Changzhou Cavens Laboratory Animal Co., Ltd. (China) and housed under pathogen-free conditions. HCC827 cells (5 × 10^6) suspended in 150 μL PBS were inoculated subcutaneously on the left flank of the mouse. When tumor volume reached an average of 70–80 mm^3, mice were randomly assigned to two groups (three mice in each group). Compound 14 (30 mg/kg, dissolved in 40% PEG 400 and 5% Tween-80) or vehicle (40% PEG 400 and 5% Tween-80) was administered to mice via intraperitoneal injection every 2 days for 21 days. The tumor volume was calculated as follows: tumor volume (mm^3) = (length × width^2)/2. All animal experiments were approved by the Ethics Committee for laboratory animals, The Nanjing Han & Zaenker Cancer Institute (File number: OGKQSPF/SQ-112).

[7] = system: HCC827 cells; experiment: Apoptosis assay (Annexin V-FITC/PI, flow cytometry); assay type: cell-based, human; details: HCC827, 10 nM, 48 h
Text: The percentage of apoptotic cells in total cells was designated as the apoptotic index.

[8] = target: T2, EGFR^L858R/T790M protein (Homo sapiens, UniProt P00533, L858R/T790M); experiment: Immunoblots of EGFR in H1975 cells; assay type: cell-based; details: H1975 cell line, up to 1 μM, 24 h
T2 construct: nor the EGFR^L858R/T790M protein in the H1975 cell line, up to 1 μM; host or cells: H1975
Protocol: as §2

[9] = target: EGFR^WT protein (Homo sapiens, UniProt P00533); experiment: Immunoblots of EGFR in H1299, H460 and HeLa cells; assay type: cell-based; details: H1299, H460 and HeLa cell lines, up to 1 μM, 24 h
Protocol: as §2

[10] = target: T3, EGFR^Del19 (Homo sapiens, UniProt P00533+Q96SW2, DEL746-750); experiment: Western blot of dissected HCC827 xenograft tumors; assay type: in vivo, mouse; design: from tissue; host or cells: HCC827 xenograft tumours in female BALB/c nude mice; details: 30 mg/kg intraperitoneal
Protocol: as §2
Female BALB/c nude mice (5–6 weeks old) were purchased from Changzhou Cavens Laboratory Animal Co., Ltd. (China) and housed under pathogen-free conditions. HCC827 cells (5 × 10^6) suspended in 150 μL PBS were inoculated subcutaneously on the left flank of the mouse. When tumor volume reached an average of 70–80 mm^3, mice were randomly assigned to two groups (three mice in each group). […] The tumor volume was calculated as follows: tumor volume (mm^3) = (length × width^2)/2. […]

[11] = system: HCC827 human tumor xenograft; experiment: HCC827 xenograft tumor growth in BALB/c nude mice; assay type: in vivo, mouse
Protocol: as §3, with “Compound 14 (30 mg/kg, dissolved in 40% PEG 400 and 5% Tween-80) or vehicle (40% PEG 400 and 5% Tween-80) was administered to mice via intraperitoneal injection every 2 days for 21 days.” left out

[12] = system: HCC827 cells; experiment: Colony formation assay in HCC827 cells; assay type: cell-based, human; details: HCC827, 7 days
Protocol: as §1

[13] = target: T3, EGFR^Del19; experiment: Western blot of EGFR degradation in HCC827 cells; assay type: cell-based; design: host or cells: HCC827; details: for EGFR protein remaining under cycloheximide: HCC827, cycloheximide 100 μg/mL + 10 nM compound
Protocol: HCC827 and H1975 cell lines were purchased from ATCC (United States) and cultured according to the manuals. Cells were grown in monolayers in appropriate media supplemented with 10% fetal bovine serum and 1% antibiotic/antimycotic solution.
as §2

[14] = system: H1299 cells; experiment: Cell viability (CCK-8) in H1299 cells; assay type: cell-based; details: up to 1 μM, 96 h
Protocol: as §1

[15] = system: EGFR^Del19; details: HCC827 cells; ref Zhao et al., 2022; cited from earlier work
[16] = system: HCC827 cells; details: ref Zhao et al., 2022; cited from earlier work

## COc1cc2c(Nc3ccc(F)c(Cl)c3)ncnc2cc1OCCCN1CCN(CCN2CCN(c3ccc4c(c3)C(=O)N(C3CCC(=O)NC3=O)C4=O)CC2)CC1 (stereo not drawn) [Compound 14]
[1]
  Effect on viability: not affecting the viability; also recorded: did not affect the viability
[2]
  Effect on viability: not affecting the viability; also recorded: did not affect the viability
[3]; Ba/F3 cells stably expressing EGFR^L858R
  DC50: 20.6 nM
[3]; Ba/F3 cells
  Degradation of EGFR^L858R compared with MS154: remarkable improvements
[4]; HCC827, 10 nM for 8 h, washed, fresh media 24-96 h
  Proliferation after compound removal: almost completely stopped proliferating; also recorded: completely ceased proliferation
[4]; HCC827, 48 h, HCC827, 48 h incubation
  IC50: ~8.29 nM
[4]; HCC827, 96 h, HCC827, 96 h incubation
  IC50: 4.91 nM
[4]; different concentrations
  Proliferation of HCC827 cells versus control vehicle: markedly attenuated the proliferation
[5]
  Levels of pEGFR and pAKT: markedly reduced; also recorded: more marked decreases
[6]
  Signs of wasting (mouse weights): None of the mice showed signs of wasting
[7]
  Increase in the number of apoptotic cells: at least a two-fold increase
[8]
  Degradation of EGFR^L858R/T790M protein: neither compound degraded
[9]
  Degradation of EGFR^WT protein: no effect; also recorded: neither compound degraded; also recorded: No significant degradation
[10]
  EGFR^Del19 protein in tumors in vivo: effectively degraded
[11]; 30 mg/kg intraperitoneal every 2 days for 21 days
  Mean tumor volume: 56.58 ± 10.91 mm^3
[11]; one-time intraperitoneal injection 30 mg/kg, 18 days after treatment, versus vehicle
  Mean tumor volume inhibition: 79%
[12]
  Colony formation: fewer and smaller colonies
[13]; 10 nM, HCC827, 24 h, average of two independent experiments, NA = not active
  EGFR degradation (%): 66.3% ± 3.5% and 66.3 ± 3.5%
[13]; 4 h
  EGFR protein remaining under cycloheximide: 34.5%
[13]; 8 h
  EGFR protein remaining under cycloheximide: 12.5%
[13]; HCC827 cells, 10 nM
  Earliest time at which EGFR^Del19 degradation observed: 2 h
[13]; HCC827 cells, 10 nM, after 24 h of incubation, read-out: Maximum degradation (Dmax) in time course
  Dmax at 0.01 µM: 85%
[13]; HCC827 cells, 10 nM, continuous incubation
  Duration of sustained EGFR^Del19 degradation: 96 h
[13]; HCC827 cells, 8 h incubation with 10 nM, then washout
  Duration of EGFR^Del19 reduction after compound removal: over 72 h
[13]; HCC827 cells, 24 h
  Degradation of EGFR^Del19 compared with MS154: remarkable improvements
[13]; HCC827 cells, 24 h, dose-response
  Dmax: 91.2%
[13]; HCC827 cells, 24 h treatment
  DC50: 0.26 nM and 0.261 nM
[14]
  Effect on viability: not affecting the viability; also recorded: did not affect the viability

## C=CC(=O)N1CCC[C@H](n2c(Nc3ccccc3)nc3cnc(Nc4ccc(N5CCN(CCCCCCCC(=O)N[C@H](C(=O)N6C[C@H](O)C[C@H]6C(=O)N[C@@H](C)c6ccc(-c7scnc7C)cc6)C(C)(C)C)CC5)cc4)nc32)C1 [CP17]
[15]
  DC50: 0.49 nM
[16]
  IC50: 1.6 nM
